Measured values from patent US12624044B2, “SMARCA degraders and uses thereof” (Kymera Therapeutics, Inc., priority 2019, dated 2026).

Target: SMARCA2 (Homo sapiens, UniProt P51531)
Experiment: MSD SMARCA2 degradation in A549 cell line
Assay type: cell-based
Conditions: 24 h; for Dmax: A549, A549 cells; for DC50: A549 cells, read-out: SMARCA2 MSD A549 degradation 24 h: Average external-Abs DC50
In short: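 SMARCA2 remaining was measured by MSD electrochemiluminescence on RIPA lysates (anti-SMARCA2 plus SULFO-TAG anti-rabbit). Prior exposure: 24 h of A549 cells to a 10-point, 3-fold dilution series topping at 1000 nM final; Dmax % given as graded codes.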

Sequence of SMARCA2 (P51531 whole entry): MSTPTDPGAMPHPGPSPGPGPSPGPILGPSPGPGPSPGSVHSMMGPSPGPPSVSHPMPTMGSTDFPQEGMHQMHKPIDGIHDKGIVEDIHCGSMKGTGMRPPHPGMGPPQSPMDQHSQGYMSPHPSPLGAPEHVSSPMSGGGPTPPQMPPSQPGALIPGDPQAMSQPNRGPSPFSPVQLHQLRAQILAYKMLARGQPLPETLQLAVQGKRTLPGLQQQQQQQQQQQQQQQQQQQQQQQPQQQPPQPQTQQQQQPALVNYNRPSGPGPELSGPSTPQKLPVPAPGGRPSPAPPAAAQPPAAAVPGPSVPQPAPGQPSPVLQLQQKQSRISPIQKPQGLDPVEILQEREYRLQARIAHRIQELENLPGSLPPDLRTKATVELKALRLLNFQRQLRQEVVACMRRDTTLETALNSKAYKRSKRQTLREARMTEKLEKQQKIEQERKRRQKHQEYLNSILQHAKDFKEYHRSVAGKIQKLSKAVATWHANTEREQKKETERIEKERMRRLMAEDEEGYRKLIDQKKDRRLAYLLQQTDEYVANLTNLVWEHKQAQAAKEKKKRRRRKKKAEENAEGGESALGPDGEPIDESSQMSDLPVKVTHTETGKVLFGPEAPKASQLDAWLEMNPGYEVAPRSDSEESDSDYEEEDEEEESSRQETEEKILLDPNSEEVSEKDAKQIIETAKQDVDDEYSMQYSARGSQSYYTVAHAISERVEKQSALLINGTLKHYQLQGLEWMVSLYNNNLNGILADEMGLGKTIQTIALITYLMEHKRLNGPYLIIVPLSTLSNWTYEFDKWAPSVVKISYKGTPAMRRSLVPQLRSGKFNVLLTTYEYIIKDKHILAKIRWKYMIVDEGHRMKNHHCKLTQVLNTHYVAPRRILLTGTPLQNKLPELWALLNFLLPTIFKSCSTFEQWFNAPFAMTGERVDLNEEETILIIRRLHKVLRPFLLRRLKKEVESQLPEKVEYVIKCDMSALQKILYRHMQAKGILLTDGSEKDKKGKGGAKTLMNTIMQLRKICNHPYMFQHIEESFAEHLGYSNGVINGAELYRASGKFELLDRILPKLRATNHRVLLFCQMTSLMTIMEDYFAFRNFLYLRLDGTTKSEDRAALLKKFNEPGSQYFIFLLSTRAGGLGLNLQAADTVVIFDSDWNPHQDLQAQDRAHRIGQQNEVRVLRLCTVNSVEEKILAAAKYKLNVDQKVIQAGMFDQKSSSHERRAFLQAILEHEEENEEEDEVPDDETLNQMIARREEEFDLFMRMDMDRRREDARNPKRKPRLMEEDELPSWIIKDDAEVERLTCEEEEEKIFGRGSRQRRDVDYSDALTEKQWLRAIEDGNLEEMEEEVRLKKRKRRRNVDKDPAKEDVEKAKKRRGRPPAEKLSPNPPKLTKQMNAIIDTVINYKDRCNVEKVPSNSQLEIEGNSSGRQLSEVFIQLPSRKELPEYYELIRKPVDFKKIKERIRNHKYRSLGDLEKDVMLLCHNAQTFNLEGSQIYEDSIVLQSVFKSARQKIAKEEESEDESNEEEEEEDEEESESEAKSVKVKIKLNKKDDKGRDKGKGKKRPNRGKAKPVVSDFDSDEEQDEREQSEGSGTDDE

| Structure (SMILES) | Dmax [%] | DC50 [µM] |
| --- | --- | --- |
| Cc1ncsc1-c1ccc(CNC(=O)[C@@H]2C[C@@H](O)CN2C(=O)[C@@H](NC(=O)CCCN2CCC(c3cccc(C#Cc4cc(NC(=O)Nc5cc(F)ncc5CO)ccn4)c3)CC2)C(C)(C)C)cc1 [I-499, (2S,4R)-1-[(2S)-2-[4-[4-[3-[2-[4-[[2-fluoro-5-(hydroxymethyl)-4-pyridyl]carbamoylamino]-2-pyridyl]ethynyl]phenyl]-1-piperidyl]butanoylamino]-3,3-dimethyl-butanoyl]-4-hydroxy-N-[[4-(4-methylthiazol-5-yl)phenyl]methyl]pyrrolidine-2-carboxamide] | < 50 | > 1 |
| Cc1ncsc1-c1ccc(CNC(=O)[C@@H]2C[C@@H](O)CN2C(=O)[C@@H](NC(=O)CN2CCC(c3ccc(C#Cc4cc(NC(=O)Nc5cc(F)ncc5CO)ccn4)cc3)CC2)C(C)(C)C)cc1 [I-500, (2S,4R)-1-((S)-2-(2-(4-(4-((4-(3-(2-fluoro-5-(hydroxymethyl)pyridin-4-yl)ureido)pyridin-2-yl)ethynyl)phenyl)piperidin-1-yl)acetamido)-3,3-dimethylbutanoyl)-4-hydroxy-N-(4-(4-methylthiazol-5-yl)benzyl)pyrrolidine-2-carboxamide] | < 50 | > 1 |
| Cc1ncsc1-c1ccc(CNC(=O)[C@@H]2C[C@@H](O)CN2C(=O)[C@@H](NC(=O)CCCN2CCC(c3ccc(C#Cc4cc(NC(=O)Nc5cc(F)ncc5CO)ccn4)cc3)CC2)C(C)(C)C)cc1 [I-501] | < 50 | > 1 |
| Cc1ncsc1-c1ccc(CNC(=O)[C@@H]2C[C@@H](O)CN2C(=O)[C@@H](NC(=O)N2CCC3(CCC(c4cnc(N5C6CCC5CN(c5cc(-c7ccccc7O)nnc5N)C6)nc4)CC3)CC2)C(C)(C)C)cc1 [I-510] | > 90 | 0.1 to 0.5 |
| Cc1ncsc1-c1ccc(CNC(=O)[C@@H]2C[C@@H](O)CN2C(=O)[C@@H](NC(=O)C2(F)CC2)C2CCC(N(C)CCCC#Cc3cnc(N4C5CCC4CN(c4cc(-c6ccccc6O)nnc4N)C5)nc3)CC2)cc1 (stereo partly shown) [I-517] | 50 to 70 | 0.501 to 1 |
| Cc1ncsc1-c1ccc(CNC(=O)[C@@H]2C[C@@H](O)CN2C(=O)C(NC(=O)C2(F)CC2)C2CCC(N(C)CCCCCc3cnc(N4C5CCC4CN(c4cc(-c6ccccc6O)nnc4N)C5)nc3)CC2)cc1 (stereo partly shown) [I-519] | < 50 | > 1 |
| Cc1ncsc1-c1ccc(CNC(=O)[C@@H]2C[C@@H](O)CN2C(=O)C(NC(=O)C2(F)CC2)C2CCC(N(C)CCCCCCCc3cnc(N4C5CCC4CN(c4cc(-c6ccccc6O)nnc4N)C5)nc3)CC2)cc1 (stereo partly drawn) [I-520, (2S,4R)-1-[2-[4-[7-[2-[3-[3-amino-6-(2-hydroxyphenyl)pyridazin-4-yl]-3,8-diazabicyclo[3.2.1]octan-8-yl]pyrimidin-5-yl]heptyl-methyl-amino]cyclohexyl]-2-[(1-fluorocyclopropanecarbonyl)amino]acetyl]-4-hydroxy-N-[[4-(4-methylthiazol-5-yl)phenyl]methyl]pyrrolidine-2-carboxamide] | < 50 | > 1 |
| COCC(=O)N1CCCc2cc(OCC(=O)NCCCN3CCC(c4cnc(N5C6CCC5CN(c5cc(-c7ccccc7O)nnc5N)C6)nc4)CC3)ccc21 [I-526] | < 50 | > 1 |
| COc1ccccc1-c1cc(N2CC3CCC(C2)N3c2ncc(C3CCN(CCCNC(=O)COc4ccc5c(c4)CCCN5C(=O)CCl)CC3)cn2)c(N)nn1 [I-527] | < 50 | > 1 |
| Nc1nnc(-c2ccccc2O)cc1N1CC2CCC(C1)N2c1ncc(C2CCN(CCCCNC(=O)COc3ccc4c(c3)CCCN4C(=O)CCl)CC2)cn1 [I-528] | < 50 | > 1 |
| Nc1nnc(-c2ccccc2O)cc1N1CC2CCC(C1)N2c1ncc(C2CCN(CCCCCCNC(=O)COc3ccc4c(c3)CCCN4C(=O)CCl)CC2)cn1 [I-529] | < 50 | > 1 |
| Nc1nnc(-c2ccccc2O)cc1N1CC2CCC(C1)N2c1ncc(C2CCN(CCCCOc3ccc(Oc4ccc(N(Cc5ccccc5)C(=O)CCl)cc4)cc3)CC2)cn1 [I-530] | < 50 | > 1 |
| Nc1nnc(-c2ccccc2O)cc1N1CC2CCC(C1)N2c1ncc(C2CCN(CCCCCCOc3ccc(Oc4ccc(N(Cc5ccccc5)C(=O)CCl)cc4)cc3)CC2)cn1 [I-531] | < 50 | > 1 |
| Nc1nnc(-c2ccccc2O)cc1N1CC2CCC(C1)N2c1ncc(C2CCN(CCCCCCCCOc3ccc(Oc4ccc(N(Cc5ccccc5)C(=O)CCl)cc4)cc3)CC2)cn1 [I-532] | 50 to 70 | > 1 |
| Nc1nnc(-c2ccccc2O)cc1N1CC2CCC(C1)N2c1ncc(C2CCN(CCCCCCCCCCOc3ccc(Oc4ccc(N(Cc5ccccc5)C(=O)CCl)cc4)cc3)CC2)cn1 [I-533, N-(4-(4-((10-(4-(2-(3-(3-amino-6-(2-hydroxyphenyl)pyridazin-4-yl)-3,8-diazabicyclo[3.2.1]octan-8-yl)pyrimidin-5-yl)piperidin-1-yl)decyl)oxy)phenoxy)phenyl)-N-benzyl-2-chloroacetamide] | < 50 | > 1 |
| CC(C)(C)[C@H](NC(=O)[C@H]1CC2(C1)C[C@H](N1CCC(c3cnc(N4C5CCC4CN(c4cc(-c6ccccc6O)nnc4N)C5)nc3)CC1)C2)C(=O)N1C[C@H](O)C[C@H]1C(=O)NOc1ccc(-c2ccccc2F)cc1 (stereo partly drawn) [I-538, (2S,4R)-1-[(2S)-2-[[2-[4-[2-[3-[3-amino-6-(2-hydroxyphenyl)pyridazin-4-yl]-3,8-diazabicyclo[3.2.1]octan-8-yl]pyrimidin-5-yl]-1-piperidyl]spiro[3.3]heptane-6-carbonyl]amino]-3,3-dimethyl-butanoyl]-N-[4-(2-fluorophenyl)phenoxy]-4-hydroxy-pyrrolidine-2-carboxamide] |  | > 1 |
